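Exposure lasted 48 hours, with cells grown in 96-well plates and compounds tested at five concentrations. Abbreviation: GI50, concentration required for 50% inhibition of growth.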 Calls of active or inactive are those of the source. Rule as the data show it: active = GI50 up to about 1.1 µM and inactive = higher.
Columns and labels:
Test in all cases: growth of human tumour cells (NCI), 48 h
[1] = test system: A549
[2] = test system: RXF 393
[3] = test system: 786-0
[4] = test system: EKVX
[5] = test system: IGROV-1
[6] = test system: SK-MEL-2
[7] = test system: ACHN
[8] = test system: TK-10
[9] = test system: PC-3
[10] = test system: DU-145
[11] = test system: HCT-116
[12] = test system: SF-539
[13] = test system: SNB-19
[14] = test system: UACC-62
[15] = test system: T47D
[16] = test system: COLO 205
[17] = test system: SK-OV-3
[18] = test system: HT-29
[19] = test system: OVCAR-4
[20] = test system: OVCAR-5
[21] = test system: HL-60
[22] = test system: NCI-H226
[23] = test system: Hs-578T
[24] = test system: CCRF-CEM
[25] = test system: HCC 2998
[26] = test system: SK-MEL-5
[27] = test system: MCF7
[28] = test system: UO-31
[29] = test system: K562
[30] = test system: SR
[31] = test system: NCI-H522
[32] = test system: SW-620
[33] = test system: HOP-62
[34] = test system: NCI-H23
[35] = test system: CAKI-1
[36] = test system: M14
[37] = test system: HCT-15
[38] = test system: BT-549
[39] = test system: LOX IMVI
[40] = test system: MDA-MB-231
[41] = test system: RPMI-8226
[42] = test system: SK-MEL-28
[43] = test system: SF-268
[44] = test system: UACC-257
[45] = test system: KM12
[46] = test system: SF-295
[47] = test system: MDA-MB-435
[48] = test system: MOLT-4
[49] = test system: OVCAR-3
[50] = test system: Malme-3M
[51] = test system: SN12C
[52] = test system: OVCAR-8
[53] = test system: MDA-N
[54] = test system: U-251
[55] = test system: SNB-75
[56] = test system: NCI-H460
[57] = test system: A498
[58] = test system: HOP-92
[59] = test system: NCI/ADR-RES

`C=C1C(=O)OC2C3C(=C)[C@@H](OC(C)=O)CC3C(C)=CC(OC(=O)C(C)(OC(C)=O)C(C)OC(C)=O)[C@@H]12` (some centres not stated) was tested, and the GI50 [1] was 24.3 µM (inactive), the GI50 [2] was 12.3 µM (inactive) and the GI50 [3] was 16.6 µM (inactive). The GI50 [4] was 16.6 µM (inactive), the GI50 [5] was 18.5 µM (inactive) and the GI50 [6] was 12.3 µM (inactive). For the same molecule, the GI50 [7] was 13.7 µM (inactive), the GI50 [8] was 14.1 µM (inactive) and the GI50 [9] was 17.3 µM (inactive). For the same molecule, the GI50 [10] was 16.1 µM (inactive), the GI50 [11] was 11 µM (inactive) and the GI50 [12] was 17.4 µM (inactive). The GI50 [13] was 85.7 µM (inactive), the GI50 [14] was 13.3 µM (inactive) and the GI50 [15] was 23.3 µM (inactive). For the same molecule, the GI50 [16] was 14.8 µM (inactive), the GI50 [17] was 83.2 µM (inactive) and the GI50 [18] was 14.4 µM (inactive). The GI50 [19] was 13.3 µM (inactive), the GI50 [20] was 21.9 µM (inactive) and the GI50 [21] was 2.52 µM (inactive). For the same molecule, the GI50 [22] was 23.8 µM (inactive), the GI50 [23] was 23.4 µM (inactive) and the GI50 [24] was 3.25 µM (inactive). The GI50 [25] was 18.6 µM (inactive), the GI50 [26] was 12.6 µM (inactive) and the GI50 [27] was 11.5 µM (inactive). For the same molecule, the GI50 [28] was 16.4 µM (inactive), the GI50 [29] was 7.29 µM (inactive) and the GI50 [30] was 22.2 µM (inactive). The GI50 [31] was 2.52 µM (inactive), the GI50 [32] was 9.33 µM (inactive) and the GI50 [33] was 37.4 µM (inactive). The GI50 [34] was 18.6 µM (inactive), the GI50 [35] was 10.6 µM (inactive) and the GI50 [36] was 14.6 µM (inactive). For the same molecule, the GI50 [37] was 12.8 µM, the GI50 [38] was 18.5 µM (inactive) and the GI50 [39] was 13.4 µM (inactive). For the same molecule, the GI50 [40] was 18.5 µM (inactive), the GI50 [41] was 6.55 µM (inactive) and the GI50 [42] was 15.1 µM (inactive). For the same molecule, the GI50 [43] was 21.7 µM (inactive), the GI50 [44] was 14.9 µM (inactive) and the GI50 [45] was 16.8 µM (inactive). The GI50 [46] was 61.2 µM (inactive), the GI50 [47] was 13.5 µM (inactive) and the GI50 [48] was 6.56 µM (inactive). The GI50 [49] was 13.2 µM (inactive), the GI50 [50] was 13.6 µM (inactive) and the GI50 [51] was 15.7 µM (inactive). The GI50 [52] was 30.1 µM (inactive), the GI50 [53] was 14.9 µM (inactive) and the GI50 [54] was 16.5 µM (inactive). For the same molecule, the GI50 [55] was 18.9 µM (inactive) and the GI50 [56] was 23.6 µM (inactive).

With `CC(C)c1ccc(/C=C2/C=C(c3ccc4ccccc4c3)OC2=O)cc1` the GI50 [1] was > 89.7 µM (inactive), the GI50 [2] was > 81.1 µM (inactive) and the GI50 [3] was > 100 µM (inactive). The GI50 [4] was 40 µM (inactive), the GI50 [5] was > 85.9 µM (inactive) and the GI50 [6] was 19.5 µM (inactive). The GI50 [7] was 38.4 µM (inactive), the GI50 [8] was > 70.3 µM (inactive) and the GI50 [57] was > 96.2 µM (inactive). For the same molecule, the GI50 [9] was 49 µM (inactive), the GI50 [10] was > 100 µM (inactive) and the GI50 [11] was 68.4 µM (inactive). For the same molecule, the GI50 [12] was > 100 µM (inactive), the GI50 [13] was > 100 µM (inactive) and the GI50 [14] was 35.4 µM (inactive). For the same molecule, the GI50 [15] was 43 µM (inactive), the GI50 [16] was 27.9 µM (inactive) and the GI50 [17] was > 100 µM (inactive). For the same molecule, the GI50 [18] was > 95.3 µM (inactive), the GI50 [19] was > 100 µM (inactive) and the GI50 [20] was > 100 µM (inactive). The GI50 [21] was 19.4 µM (inactive), the GI50 [22] was 73.5 µM (inactive) and the GI50 [23] was > 75.2 µM (inactive). The GI50 [24] was 2.56 µM (inactive), the GI50 [25] was > 100 µM (inactive) and the GI50 [26] was 15.2 µM (inactive). The GI50 [27] was 88.5 µM (inactive), the GI50 [28] was > 76.2 µM (inactive) and the GI50 [29] was 25.2 µM (inactive). The GI50 [30] was 5.94 µM (inactive), the GI50 [31] was 10.5 µM (inactive) and the GI50 [32] was > 86.5 µM (inactive). The GI50 [33] was > 100 µM (inactive), the GI50 [34] was 38.7 µM (inactive) and the GI50 [35] was > 82.4 µM (inactive). For the same molecule, the GI50 [36] was 41 µM (inactive), the GI50 [37] was 72.3 µM and the GI50 [38] was 33.3 µM (inactive). The GI50 [39] was 40.2 µM (inactive), the GI50 [40] was 99.8 µM (inactive) and the GI50 [41] was 31.3 µM (inactive). For the same molecule, the GI50 [42] was 55.5 µM (inactive), the GI50 [43] was > 100 µM (inactive) and the GI50 [44] was 21 µM (inactive). For the same molecule, the GI50 [45] was 62.1 µM (inactive), the GI50 [46] was > 94.6 µM (inactive) and the GI50 [47] was 41.3 µM (inactive). For the same molecule, the GI50 [58] was 37.8 µM (inactive), the GI50 [48] was 21.2 µM (inactive) and the GI50 [59] was 39.5 µM (inactive). For the same molecule, the GI50 [49] was 60 µM (inactive), the GI50 [50] was 15.8 µM (inactive) and the GI50 [51] was 57.1 µM (inactive). The GI50 [52] was 45.2 µM (inactive), the GI50 [54] was 39.6 µM (inactive) and the GI50 [55] was > 74.1 µM (inactive). The GI50 [56] was > 78.2 µM (inactive).

For `Nc1cccc(/C=C/CN2CCN(CCOC(c3ccccc3)c3ccccc3)CC2)c1`, the GI50 [1] was 15.1 µM (inactive), the GI50 [2] was 12.3 µM (inactive) and the GI50 [3] was 14.8 µM (inactive). For the same molecule, the GI50 [4] was 16.4 µM (inactive), the GI50 [5] was 16.3 µM (inactive) and the GI50 [6] was 17.7 µM (inactive). For the same molecule, the GI50 [7] was 17.9 µM (inactive), the GI50 [8] was 15.8 µM (inactive) and the GI50 [57] was 18 µM (inactive). For the same molecule, the GI50 [9] was 14.8 µM (inactive), the GI50 [10] was 13.6 µM (inactive) and the GI50 [11] was 12.5 µM (inactive). The GI50 [12] was 16.7 µM (inactive), the GI50 [13] was 15.7 µM (inactive) and the GI50 [14] was 17.4 µM (inactive). The GI50 [15] was 8 µM (inactive), the GI50 [16] was 6.03 µM (inactive) and the GI50 [17] was 14.1 µM (inactive). For the same molecule, the GI50 [18] was 3.15 µM (inactive), the GI50 [19] was 13.2 µM (inactive) and the GI50 [20] was 16 µM (inactive). The GI50 [21] was 5.05 µM (inactive), the GI50 [22] was 21.2 µM (inactive) and the GI50 [23] was 21.8 µM (inactive). The GI50 [24] was 9.98 µM (inactive), the GI50 [25] was 3.52 µM (inactive) and the GI50 [26] was 12.6 µM (inactive). For the same molecule, the GI50 [27] was 13.8 µM (inactive), the GI50 [28] was 13.6 µM (inactive) and the GI50 [29] was 3.11 µM (inactive). For the same molecule, the GI50 [30] was 4.61 µM (inactive), the GI50 [31] was 13.9 µM (inactive) and the GI50 [32] was 15.9 µM (inactive). For the same molecule, the GI50 [33] was 13.8 µM (inactive), the GI50 [34] was 16.1 µM (inactive) and the GI50 [35] was 19.8 µM (inactive). For the same molecule, the GI50 [36] was 12.8 µM (inactive), the GI50 [37] was 12.8 µM and the GI50 [38] was 16.1 µM (inactive). For the same molecule, the GI50 [39] was 15.6 µM (inactive), the GI50 [40] was 15 µM (inactive) and the GI50 [41] was 3 µM (inactive). The GI50 [42] was 14 µM (inactive), the GI50 [43] was 17.7 µM (inactive) and the GI50 [44] was 15.9 µM (inactive). The GI50 [45] was 11.2 µM (inactive), the GI50 [46] was 17.4 µM (inactive) and the GI50 [47] was 14.3 µM (inactive). For the same molecule, the GI50 [58] was 12.6 µM (inactive), the GI50 [48] was 3.54 µM (inactive) and the GI50 [59] was 14.3 µM (inactive). The GI50 [49] was 15.6 µM (inactive), the GI50 [50] was 18.2 µM (inactive) and the GI50 [51] was 16.8 µM (inactive). For the same molecule, the GI50 [52] was 16 µM (inactive), the GI50 [54] was 14.6 µM (inactive) and the GI50 [55] was 10.5 µM (inactive). For the same molecule, the GI50 [56] was 13.6 µM (inactive).
